Reference: patent US11084826B2, “RSV antiviral pyrazolo- and triazolo-pyrimidine compounds” (Janssen Sciences Ireland Unlimited Company, priority 2015, dated 2021)

test system: rgRSV224 virus; assay: Antiviral activity: inhibition of rgRSV224 (GFP-expressing RSV) replication in HeLa cells, GFP expression read-out; assay type: cell-based, respiratory syncytial virus (RSV); settings: human respiratory syncytial virus, HeLa, read-out: RSV HELA pEC50, rgRSV224 virus (MOI=1) in HeLa cells, GFP read-out (converted)
In short: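 HeLa cells (3,000/well) were infected with GFP-expressing rgRSV224 (MOI=1) in the presence of 9 serial 4-fold compound dilutions (0.05% DMSO) and incubated at 37° C, 5% CO2. After three days, GFP expression was measured by laser microscopy. EC50 is the concentration giving 50% inhibition of GFP expression.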

SMILES | EC50 [nM]
CCc1cc(C(=O)N2CCn3nccc3C2C)nc2cc(-c3ccc(/C=C/C(=O)O)cc3F)nn12 (stereo not drawn) [Compound M41] | 794
CCc1cc(C(=O)N2CCn3c(C)ccc3C2C)nc2cc(-c3ccc(/C=C/C(=O)O)cc3F)nn12 (stereo not drawn) [Compound M42] | 191
CCc1cc(C(=O)N2CCn3cccc3C2C)nc2cc(-c3ccc(/C=C/C(=O)O)cc3F)nn12 (stereo not drawn) [Compound M43] | 47.9
CC1c2ccsc2CCN1C(=O)c1cc(C2CC2)n2nc(-c3cccc(/C=C/C(=O)O)c3F)cc2n1 (stereo not drawn) [Compound M46] | 5.01
CCc1cc(C(=O)N2CCCCCC2C)nc2cc(-c3ccc(/C=C/C(N)=O)cc3F)nn12 (stereo not drawn) [Compound N1] | 129
C[C@@H]1c2ccsc2CCN1C(=O)c1cc(C2(C)CC2)n2nc(-c3ccc([C@@H]4C[C@H]4C(=O)O)cc3F)cc2n1 [Compound O21] | 11
CCc1cc(C(=O)N2CCCCCC2C)nc2cc(-c3ccc(S(=O)(=O)N(C)C)cc3F)nn12 (stereo not drawn) [Compound P1] | 2820
CCc1cc(C(=O)N2CCCCCC2C)nc2cc(-c3ccc(S(N)(=O)=O)cc3F)nn12 (stereo not drawn) [Compound P2] | 646
CCc1cc(C(=O)N2CCCCCC2C)nc2cc(-c3ccc(S(=O)(=O)NC)cc3F)nn12 (stereo not drawn) [Compound P3] | 692
CCc1cc(C(=O)N2CCCCCC2C)nc2cc(-c3ccc(CCC(=O)O)cc3F)nn12 (stereo not drawn) [Compound Q1] | 537
CCc1cc(C(=O)N2CCCCCC2C)nc2cc(-c3ccc(CCC(N)=O)cc3F)nn12 (stereo not drawn) [Compound R1] | 251
CCc1cc(C(=O)N2CCCCCC2C)nc2nc(-c3ccc(NC(=O)C4CC4)cc3F)nn12 (stereo not drawn) [Compound T1] | 550
CCc1cc(C(=O)N2CCCCCC2C)nc2nc(-c3ccc(NC(=O)NCC4CCCO4)cc3F)nn12 (stereo not drawn) [Compound U1] | 525
CCc1cc(C(=O)N2CCCCCC2C)nc2nc(-c3ccc(C(N)=O)cc3F)nn12 (stereo not drawn) [Compound V1] | 1910
CCc1cc(C(=O)N2CCCCC[C@H]2C)nc2cc(-c3ccc(-n4ccc(C(=O)O)n4)cc3F)nn12 [Compound W3] | 107
CCc1cc(C(=O)N2CCCCC[C@H]2C)nc2cc(-c3ccc(N4CC[C@@H](C(=O)O)C4)cc3F)nn12 [Compound W6] | 81.3
CCc1cc(C(=O)N2CCCCC[C@H]2C)nc2cc(-c3ccc(N4CC[C@H](C(=O)O)C4)cc3F)nn12 [Compound W7] | 47.9
C[C@@H]1CCCCCN1C(=O)c1cc(C2CC2)n2nc(-c3ccc(-n4cc(C(=O)O)cn4)cc3F)cc2n1 [Compound W8] | 77.6
C[C@@H]1CCCCCN1C(=O)c1cc(C2CCC2)n2nc(-c3ccc(-n4cc(C(=O)O)cn4)cc3F)cc2n1 [Compound W9] | 46.8
C[C@@H]1CCCCCN1C(=O)c1cc(C2(C)CC2)n2nc(-c3ccc(-n4cc(C(=O)O)cn4)cc3F)cc2n1 [Compound W10] | 30.9
CCc1cc(C(=O)N2CCCCC[C@H]2C)nc2cc(-c3ccc(N4CC=C(C(=O)O)CC4)cc3F)nn12 [Compound W11] | 234
CCc1cc(C(=O)N2CCCCC[C@H]2C)nc2cc(-c3ccc(N4C[C@@H]5CC(C(=O)O)=C[C@@H]5C4)cc3F)nn12 [Compound W12] | 204
CC(C)=Cc1cc(C(=O)N2CCCCC[C@H]2C)nc2cc(-c3ccc(N4CC[C@H](C(=O)O)C4)cc3F)nn12 [Compound W15] | 51.3
CCc1cc(C(=O)N2CCCCC[C@H]2C)nc2cc(-c3ccc(N4CCC(C)(C(=O)O)C4)cc3F)nn12 (stereo partly drawn) [Compound W17] | 21.9

test system: not listed separately; assay: Cytotoxicity in HeLa cells, ATP content measured with the ATPlite kit; assay type: cell-based; settings: human, TOX HELA pCC50

SMILES | CC50 at 3 days [nM]
CCc1cc(C(=O)N2CCn3nccc3C2C)nc2cc(-c3ccc(/C=C/C(=O)O)cc3F)nn12 (stereo not drawn) [Compound M41] | > 25100
CCc1cc(C(=O)N2CCn3c(C)ccc3C2C)nc2cc(-c3ccc(/C=C/C(=O)O)cc3F)nn12 (stereo not drawn) [Compound M42] | > 25100
CCc1cc(C(=O)N2CCn3cccc3C2C)nc2cc(-c3ccc(/C=C/C(=O)O)cc3F)nn12 (stereo not drawn) [Compound M43] | > 25100
CC1c2ccsc2CCN1C(=O)c1cc(C2CC2)n2nc(-c3cccc(/C=C/C(=O)O)c3F)cc2n1 (stereo not drawn) [Compound M46] | 67600
CCc1cc(C(=O)N2CCCCCC2C)nc2cc(-c3ccc(/C=C/C(N)=O)cc3F)nn12 (stereo not drawn) [Compound N1] | > 25100
C[C@@H]1c2ccsc2CCN1C(=O)c1cc(C2(C)CC2)n2nc(-c3ccc([C@@H]4C[C@H]4C(=O)O)cc3F)cc2n1 [Compound O21] | 55000
CCc1cc(C(=O)N2CCCCCC2C)nc2cc(-c3ccc(S(=O)(=O)N(C)C)cc3F)nn12 (stereo not drawn) [Compound P1] | > 25100
CCc1cc(C(=O)N2CCCCCC2C)nc2cc(-c3ccc(S(N)(=O)=O)cc3F)nn12 (stereo not drawn) [Compound P2] | > 25100
CCc1cc(C(=O)N2CCCCCC2C)nc2cc(-c3ccc(S(=O)(=O)NC)cc3F)nn12 (stereo not drawn) [Compound P3] | > 25100
CCc1cc(C(=O)N2CCCCCC2C)nc2cc(-c3ccc(CCC(=O)O)cc3F)nn12 (stereo not drawn) [Compound Q1] | > 25100
CCc1cc(C(=O)N2CCCCCC2C)nc2cc(-c3ccc(CCC(N)=O)cc3F)nn12 (stereo not drawn) [Compound R1] | > 25100
CCc1cc(C(=O)N2CCCCCC2C)nc2nc(-c3ccc(NC(=O)C4CC4)cc3F)nn12 (stereo not drawn) [Compound T1] | > 100000
CCc1cc(C(=O)N2CCCCCC2C)nc2nc(-c3ccc(NC(=O)NCC4CCCO4)cc3F)nn12 (stereo not drawn) [Compound U1] | > 100000
CCc1cc(C(=O)N2CCCCCC2C)nc2nc(-c3ccc(C(N)=O)cc3F)nn12 (stereo not drawn) [Compound V1] | > 25100
CCc1cc(C(=O)N2CCCCC[C@H]2C)nc2cc(-c3ccc(-n4ccc(C(=O)O)n4)cc3F)nn12 [Compound W3] | 60300
CCc1cc(C(=O)N2CCCCC[C@H]2C)nc2cc(-c3ccc(N4CC[C@@H](C(=O)O)C4)cc3F)nn12 [Compound W6] | 69200
CCc1cc(C(=O)N2CCCCC[C@H]2C)nc2cc(-c3ccc(N4CC[C@H](C(=O)O)C4)cc3F)nn12 [Compound W7] | 70800
C[C@@H]1CCCCCN1C(=O)c1cc(C2CC2)n2nc(-c3ccc(-n4cc(C(=O)O)cn4)cc3F)cc2n1 [Compound W8] | 55000
C[C@@H]1CCCCCN1C(=O)c1cc(C2CCC2)n2nc(-c3ccc(-n4cc(C(=O)O)cn4)cc3F)cc2n1 [Compound W9] | 51300
C[C@@H]1CCCCCN1C(=O)c1cc(C2(C)CC2)n2nc(-c3ccc(-n4cc(C(=O)O)cn4)cc3F)cc2n1 [Compound W10] | 52500
CCc1cc(C(=O)N2CCCCC[C@H]2C)nc2cc(-c3ccc(N4CC=C(C(=O)O)CC4)cc3F)nn12 [Compound W11] | 58900
CCc1cc(C(=O)N2CCCCC[C@H]2C)nc2cc(-c3ccc(N4C[C@@H]5CC(C(=O)O)=C[C@@H]5C4)cc3F)nn12 [Compound W12] | 63100
CC(C)=Cc1cc(C(=O)N2CCCCC[C@H]2C)nc2cc(-c3ccc(N4CC[C@H](C(=O)O)C4)cc3F)nn12 [Compound W15] | 57500
CCc1cc(C(=O)N2CCCCC[C@H]2C)nc2cc(-c3ccc(N4CCC(C)(C(=O)O)C4)cc3F)nn12 (stereo partly drawn) [Compound W17] | 58900

test system: not given; assay: not given; settings: not given

SMILES | melting point [°C]
CCc1cc(C(=O)N2CCn3nccc3C2C)nc2cc(-c3ccc(/C=C/C(=O)O)cc3F)nn12 (stereo not drawn) [Compound M41] | 225 to 230
CCc1cc(C(=O)N2CCn3c(C)ccc3C2C)nc2cc(-c3ccc(/C=C/C(=O)O)cc3F)nn12 (stereo not drawn) [Compound M42] | 240 to 245
CCc1cc(C(=O)N2CCn3cccc3C2C)nc2cc(-c3ccc(/C=C/C(=O)O)cc3F)nn12 (stereo not drawn) [Compound M43] | 255 to 260
CC1c2ccsc2CCN1C(=O)c1cc(C2CC2)n2nc(-c3cccc(/C=C/C(=O)O)c3F)cc2n1 (stereo not drawn) [Compound M46] | 265.43
CCc1cc(C(=O)N2CCCCCC2C)nc2cc(-c3ccc(/C=C/C(N)=O)cc3F)nn12 (stereo not drawn) [Compound N1] | 140 to 145
C[C@@H]1c2ccsc2CCN1C(=O)c1cc(C2(C)CC2)n2nc(-c3ccc([C@@H]4C[C@H]4C(=O)O)cc3F)cc2n1 [Compound O21] | 207.61
CCc1cc(C(=O)N2CCCCCC2C)nc2cc(-c3ccc(S(=O)(=O)N(C)C)cc3F)nn12 (stereo not drawn) [Compound P1] | 120
CCc1cc(C(=O)N2CCCCCC2C)nc2cc(-c3ccc(S(N)(=O)=O)cc3F)nn12 (stereo not drawn) [Compound P2] | 229
CCc1cc(C(=O)N2CCCCCC2C)nc2cc(-c3ccc(S(=O)(=O)NC)cc3F)nn12 (stereo not drawn) [Compound P3] | 116
CCc1cc(C(=O)N2CCCCCC2C)nc2cc(-c3ccc(CCC(=O)O)cc3F)nn12 (stereo not drawn) [Compound Q1] | 125 to 130
CCc1cc(C(=O)N2CCCCCC2C)nc2cc(-c3ccc(CCC(N)=O)cc3F)nn12 (stereo not drawn) [Compound R1] | 95 to 100
CCc1cc(C(=O)N2CCCCCC2C)nc2nc(-c3ccc(NC(=O)C4CC4)cc3F)nn12 (stereo not drawn) [Compound T1] | 210 to 215
CCc1cc(C(=O)N2CCCCCC2C)nc2nc(-c3ccc(NC(=O)NCC4CCCO4)cc3F)nn12 (stereo not drawn) [Compound U1] | 185 to 190
CCc1cc(C(=O)N2CCCCCC2C)nc2nc(-c3ccc(C(N)=O)cc3F)nn12 (stereo not drawn) [Compound V1] | 215 to 220
CCc1cc(C(=O)N2CCCCC[C@H]2C)nc2cc(-c3ccc(-n4ccc(C(=O)O)n4)cc3F)nn12 [Compound W3] | 207.63
CCc1cc(C(=O)N2CCCCC[C@H]2C)nc2cc(-c3ccc(N4CC[C@@H](C(=O)O)C4)cc3F)nn12 [Compound W6] | 214.84
CCc1cc(C(=O)N2CCCCC[C@H]2C)nc2cc(-c3ccc(N4CC[C@H](C(=O)O)C4)cc3F)nn12 [Compound W7] | 205.8
C[C@@H]1CCCCCN1C(=O)c1cc(C2CC2)n2nc(-c3ccc(-n4cc(C(=O)O)cn4)cc3F)cc2n1 [Compound W8] | 232.32
C[C@@H]1CCCCCN1C(=O)c1cc(C2CCC2)n2nc(-c3ccc(-n4cc(C(=O)O)cn4)cc3F)cc2n1 [Compound W9] | 142.16
C[C@@H]1CCCCCN1C(=O)c1cc(C2(C)CC2)n2nc(-c3ccc(-n4cc(C(=O)O)cn4)cc3F)cc2n1 [Compound W10] | 239.85
CCc1cc(C(=O)N2CCCCC[C@H]2C)nc2cc(-c3ccc(N4CC=C(C(=O)O)CC4)cc3F)nn12 [Compound W11] | 277.45
CCc1cc(C(=O)N2CCCCC[C@H]2C)nc2cc(-c3ccc(N4C[C@@H]5CC(C(=O)O)=C[C@@H]5C4)cc3F)nn12 [Compound W12] | 252.19
CC(C)=Cc1cc(C(=O)N2CCCCC[C@H]2C)nc2cc(-c3ccc(N4CC[C@H](C(=O)O)C4)cc3F)nn12 [Compound W15] | 189.89
CCc1cc(C(=O)N2CCCCC[C@H]2C)nc2cc(-c3ccc(N4CCC(C)(C(=O)O)C4)cc3F)nn12 (stereo partly drawn) [Compound W17] | 172.28
